In patent publication US20140041337A1, “Food Packaging Method” (Kureha Corporation, priority 2007, published 2014):

System: bacteria
Assay: Summary of bacterial counting, Tables 1 to 4
Type: cell-based
Conditions: carbon dioxide gas 10 to 45 cm^3 per 100 g of the food (volume at 0° C. and 1 atm)
Description: The bacteria counts were determined as follows. The sliced beef was diluted with a tenfold amount of sterile physiological saline to give a test liquid. One (1) ml of the test liquid was placed in sterile Petri dishes. For the viable bacteria count, a standard agar medium (manufactured by NISSUI PHARMACEUTICAL CO., LTD.) was added and the bacteria were cultured at 37° C. for 2 days. For the coliform bacteria count, a desoxycholate agar medium (manufactured by NISSUI PHARMACEUTICAL CO., LTD.) was added and the bacteria were cultured at 37° C. for 1 day. The colonies that grew were counted. The psychrophilic bacteria count was determined as follows. The sliced pork was diluted with a tenfold amount of sterile physiological saline to give a test liquid. One (1) ml of the test liquid was placed in sterile Petri dishes. A YGA agar medium (manufactured by NISSUI PHARMACEUTICAL CO., LTD.) was added and the bacteria were cultured at 10° C. for 5 days. The colonies that grew were counted.

With `O=C=O` [carbon dioxide gas, carbon dioxide] the bacterial growth was “inhibits bacterial growth”.
